Test results published in ChEMBL document CHEMBL4004848, “Dregamine and tabernaemontanine derivatives as ABCB1 modulators on resistant cancer cells” (Eur J Med Chem, 2017).

Tests used:
L5178Y = assay: Cytotoxicity against mouse L5178Y cells after 24 hrs by MTT assay; assay type: functional, cell-based
NIH3T3 = assay: Cytotoxicity against mouse NIH/3T3 cells after 24 hrs by MTT assay; assay type: cell-based; details: NIH3T3, 24 h
[1] = target: T1, ATP-dependent translocase ABCB1 (Homo sapiens, UniProt P08183); assay: Inhibition of human ABCB1 expressed in mouse L5178Y cells assessed as increase in rhodamine-123 accumulation by measuring forward scatter count of cells at 2 uM pretreated for 10 mins followed by rhodamine-123 addition after 20 mins by flow cytometry (reference value: 2206); assay type: cell-based
[2] = target: T1, ATP-dependent translocase ABCB1; assay: Inhibition of human ABCB1 expressed in mouse L5178Y cells assessed as increase in rhodamine-123 accumulation by measuring forward scatter count of cells at 20 uM pretreated for 10 mins followed by rhodamine-123 addition after 20 mins by flow cytometry (reference value: 2206); assay type: cell-based
[3] = target: T1, ATP-dependent translocase ABCB1; assay: Inhibition of human ABCB1 expressed in mouse L5178Y cells assessed as increase in rhodamine-123 accumulation by measuring side scatter count of cells at 2 uM pretreated for 10 mins followed by rhodamine-123 addition after 20 mins by flow cytometry (reference value: 903); assay type: cell-based
[4] = target: T1, ATP-dependent translocase ABCB1; assay: Inhibition of human ABCB1 expressed in mouse L5178Y cells assessed as increase in rhodamine-123 accumulation by measuring side scatter count of cells at 20 uM pretreated for 10 mins followed by rhodamine-123 addition after 20 mins by flow cytometry (reference value: 903); assay type: cell-based
[5] = target: T1, ATP-dependent translocase ABCB1; assay: Inhibition of human ABCB1 expressed in mouse L5178Y cells assessed as fluorescence activity ratio at 2 uM pretreated for 10 mins followed by rhodamine-123 addition after 20 mins by flow cytometry; assay type: cell-based
[6] = target: T1, ATP-dependent translocase ABCB1; assay: Inhibition of human ABCB1 expressed in mouse L5178Y cells assessed as fluorescence activity ratio at 20 uM pretreated for 10 mins followed by rhodamine-123 addition after 20 mins by flow cytometry; assay type: cell-based
[7] = target: T1, ATP-dependent translocase ABCB1; assay: Inhibition of human ABCB1 expressed in mouse L5178Y cells pretreated for 10 mins followed by rhodamine-123 addition after 20 mins by flow cytometry; assay type: cell-based
[8] = Selectivity index, ratio of IC50 for mouse L5178Y cells to IC50 for human ABCB1 expressed in L5178Y cells
[9] = target: T1, ATP-dependent translocase ABCB1; assay: Inhibition of human ABCB1 expressed in mouse L5178Y cells assessed as potentiation of doxorubicin-induced cytotoxicity by measuring combination index at 2:5 doxorubicin to compound ratio after 48 hrs by MTT assay; assay type: cell-based
[10] = Selectivity index, ratio of IC50 for mouse NIH/3T3 cells to IC50 for mouse L5178Y cells; assay type: functional
[11] = target: T1, ATP-dependent translocase ABCB1; assay: Inhibition of human ABCB1 expressed in mouse L5178Y cells assessed as potentiation of doxorubicin-induced cytotoxicity by measuring combination index at 2:25 doxorubicin to compound ratio after 48 hrs by MTT assay; assay type: cell-based

T1 sequence (P08183 whole entry): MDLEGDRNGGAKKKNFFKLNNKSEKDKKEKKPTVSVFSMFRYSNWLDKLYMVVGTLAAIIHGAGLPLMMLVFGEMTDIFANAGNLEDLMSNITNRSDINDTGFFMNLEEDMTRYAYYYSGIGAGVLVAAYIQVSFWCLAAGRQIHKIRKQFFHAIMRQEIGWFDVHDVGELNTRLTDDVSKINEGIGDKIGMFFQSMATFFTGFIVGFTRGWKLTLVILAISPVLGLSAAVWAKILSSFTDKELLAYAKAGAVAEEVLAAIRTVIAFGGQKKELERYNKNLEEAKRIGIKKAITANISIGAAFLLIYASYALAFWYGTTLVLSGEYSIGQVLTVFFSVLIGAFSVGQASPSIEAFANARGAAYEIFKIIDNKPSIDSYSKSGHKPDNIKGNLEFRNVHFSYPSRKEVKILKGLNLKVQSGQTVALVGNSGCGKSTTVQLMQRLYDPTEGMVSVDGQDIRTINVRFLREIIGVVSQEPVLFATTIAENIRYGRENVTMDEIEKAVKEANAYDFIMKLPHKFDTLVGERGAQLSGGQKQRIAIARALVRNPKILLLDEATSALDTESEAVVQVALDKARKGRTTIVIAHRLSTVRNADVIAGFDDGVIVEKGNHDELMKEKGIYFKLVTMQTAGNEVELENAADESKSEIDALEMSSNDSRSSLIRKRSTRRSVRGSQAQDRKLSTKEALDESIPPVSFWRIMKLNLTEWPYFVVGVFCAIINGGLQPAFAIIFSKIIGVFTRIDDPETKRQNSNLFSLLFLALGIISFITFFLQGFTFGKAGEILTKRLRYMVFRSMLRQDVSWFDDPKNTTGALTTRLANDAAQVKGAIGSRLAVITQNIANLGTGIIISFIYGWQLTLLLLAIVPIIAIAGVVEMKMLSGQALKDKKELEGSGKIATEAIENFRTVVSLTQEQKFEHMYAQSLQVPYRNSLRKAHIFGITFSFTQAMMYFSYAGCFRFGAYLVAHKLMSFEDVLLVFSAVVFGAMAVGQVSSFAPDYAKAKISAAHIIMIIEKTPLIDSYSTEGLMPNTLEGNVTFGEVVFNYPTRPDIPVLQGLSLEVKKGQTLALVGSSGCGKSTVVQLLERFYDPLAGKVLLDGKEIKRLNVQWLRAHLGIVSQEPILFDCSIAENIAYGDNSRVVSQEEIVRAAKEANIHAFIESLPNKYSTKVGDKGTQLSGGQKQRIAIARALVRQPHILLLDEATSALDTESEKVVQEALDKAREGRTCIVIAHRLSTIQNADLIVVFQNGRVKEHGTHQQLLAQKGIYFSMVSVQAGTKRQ

Row | Structure (SMILES) | IC50 (L5178Y) [µM] | IC50 (NIH3T3) [µM] | Activity [1] | Activity [2] | Activity [3] | Activity [4] | Ratio [5] | Ratio [6] | inhibition (INH) [7] | Ratio IC50 [8] | CI [9] | Ratio IC50 [10] | CI [11]
1 | CC[C@H]1CN(C)[C@H]2Cc3c(n(CCN(CC)CC)c4ccccc34)C(=O)C[C@H]1[C@@H]2C(=O)OC | 67.1 | > 100 | 2415 | 2440 | 1214 | 1192 | 2.56 | 52.93 | Dose-dependent effect | – | – | – | –
2 | CC[C@H]1CN(C)[C@H]2Cc3c([nH]c4ccccc34)/C(=N/N)C[C@H]1[C@@H]2C(=O)OC | 69.8 | > 100 | 2184 | 2162 | 1025 | 1037 | 1.93 | 46.47 | Dose-dependent effect | 0.95 | – | – | –
3 | CC[C@H]1CN(C)[C@H]2Cc3c([nH]c4ccccc34)/C(=N/Nc3cnccn3)C[C@H]1[C@@H]2C(=O)OC | 75 | > 100 | 2227 | 2229 | 1058 | 1038 | 8.49 | 60.79 | Dose-dependent effect | 0.88 | 0.1 | – | –
4 | CC[C@@H]1CN(C)[C@H]2Cc3c([nH]c4ccccc34)/C(=N/Nc3ccc(Br)cn3)C[C@H]1[C@@H]2C(=O)OC | 29.2 | 83.2 | 2294 | 2225 | 804 | 765 | 84.19 | 70.82 | – | 0.78 | – | 2.85 | 0.19
5 | CC[C@@H]1CN(C)[C@H]2Cc3c([nH]c4ccccc34)/C(=N/O)C[C@H]1[C@@H]2C(=O)OC | 60.1 | > 100 | 2237 | 2304 | 789 | 781 | 1.26 | 7.31 | Dose-dependent effect | 0.7 | – | – | 0.36
6 | CC[C@H]1CN(C)[C@H]2Cc3c(n(C(=O)c4cccc(C)c4)c4ccccc34)C(=O)C[C@H]1[C@@H]2C(=O)OC | > 100 | > 100 | 2436 | 2449 | 1197 | 1204 | 0.95 | 12.1 | Dose-dependent effect | – | – | – | –
7 | CC[C@@H]1CN(C)[C@H]2Cc3c([nH]c4ccccc34)/C(=N/Nc3ccccc3)C[C@H]1[C@@H]2C(=O)OC | 11.4 | 19.9 | 2129 | 2046 | 941 | 955 | 5.49 | 59.65 | Dose-dependent effect | 0.67 | – | 1.74 | 0.2
8 | CC[C@@H]1CN(C)[C@H]2Cc3c([nH]c4ccccc34)/C(=N/NC(N)=O)C[C@H]1[C@@H]2C(=O)OC | > 100 | > 100 | 2410 | 2389 | 793 | 770 | 1.04 | 2.12 | Dose-dependent effect | – | – | – | –
9 | CC[C@@H]1CN(C)[C@H]2Cc3c([nH]c4ccccc34)/C(=N/N)C[C@H]1[C@@H]2C(=O)OC | 46.6 | 95 | 2191 | 2172 | 927 | 918 | 1.32 | 18.46 | Dose-dependent effect | 0.96 | – | 1.36 | –
10 | CC[C@H]1CN(C)[C@H]2Cc3c([nH]c4ccccc34)[C@@H](O)C[C@H]1[C@@H]2C(=O)OC | > 100 | > 100 | 2212 | 2199 | 809 | 797 | 1.03 | 5.18 | Dose-dependent effect | – | – | – | –
11 | CC[C@H]1CN(C)[C@H]2Cc3c([nH]c4ccccc34)/C(=N/Nc3ccc(Br)cn3)C[C@H]1[C@@H]2C(=O)OC | 35.6 | 86.5 | 2152 | 1947 | 1049 | 992 | 57.99 | 56.22 | – | 0.89 | – | 2.43 | 0.28
12 | COc1ccc(CCN(C)CCCC(C#N)(c2ccc(OC)c(OC)c2)C(C)C)cc1OC (stereo not drawn) | – | – | – | 2611 | – | 1078 | – | – | – | – | – | – | –
13 | CC[C@H]1CN(C)[C@H]2Cc3c([nH]c4ccccc34)/C(=N/O)C[C@H]1[C@@H]2C(=O)OC | 13 | 35.8 | 2156 | 2182 | 958 | 912 | 0.85 | 3.87 | Dose-dependent effect | 0.77 | – | 2.75 | –
14 | C/C=C/C(=O)O[C@H]1C[C@@H]2[C@@H](CC)CN(C)[C@@H](Cc3c1[nH]c1ccccc31)[C@H]2C(=O)OC | 90.3 | > 100 | 2440 | 2447 | 1226 | 1213 | 2.42 | 18.09 | Dose-dependent effect | – | – | – | –
15 | CC[C@H]1CN(C)[C@H]2Cc3c([nH]c4ccccc34)C(=O)C[C@H]1[C@@H]2C(=O)OC | 82.4 | > 100 | 2353 | 2240 | 1081 | 1098 | 1.79 | 15.35 | Dose-dependent effect | – | – | – | –
16 | CC[C@@H]1CN(C)[C@H]2Cc3c([nH]c4ccccc34)/C(=N/Nc3cnccn3)C[C@H]1[C@@H]2C(=O)OC | 63.9 | > 100 | 2283 | 2265 | 793 | 765 | 10.28 | 78.79 | Dose-dependent effect | – | 0.31 | – | –
17 | CC[C@H]1CN(C)[C@H]2Cc3c([nH]c4ccccc34)/C(=N/NC(N)=O)C[C@H]1[C@@H]2C(=O)OC | > 100 | > 100 | 2312 | 2380 | 778 | 756 | 1.16 | 2.24 | Dose-dependent effect | – | – | – | –
18 | CC[C@@H]1CN(C)[C@H]2Cc3c([nH]c4ccccc34)[C@@H](O)C[C@H]1[C@@H]2C(=O)OC | 55.6 | > 100 | 2251 | 2083 | 793 | 788 | 0.88 | 1.36 | Dose-dependent effect | 0.66 | 0.4 | – | –
19 | CC[C@@H]1CN(C)[C@H]2Cc3c([nH]c4ccccc34)C(=O)C[C@H]1[C@@H]2C(=O)OC | 56.8 | > 100 | 2182 | 2180 | 1146 | 1033 | 0.77 | 1.38 | Dose-dependent effect | – | – | – | –
20 | CC[C@H]1CN(C)[C@H]2Cc3c(n(C)c4ccccc34)C(=O)C[C@H]1[C@@H]2C(=O)OC | 40.4 | > 100 | 2435 | 2428 | 1214 | 1197 | 1.81 | 46.7 | Dose-dependent effect | 0.45 | 0.24 | – | –
21 | CC[C@@H]1CN(C)[C@H]2Cc3c([nH]c4ccccc34)[C@@H](OC(=O)C34CC5CC(CC(C5)C3)C4)C[C@H]1[C@@H]2C(=O)OC | > 100 | > 100 | 2450 | 2442 | 1209 | 1203 | 1.08 | 8.61 | Dose-dependent effect | – | – | – | –
